Test results as given in patent US10723741B1, “DNA polymerase IIIC inhibitors and use thereof” (Acurx Pharmaceuticals, LLC, priority 2018, dated 2020).
In brackets after ≈: the same amount, converted by molar mass. Like-named read-outs stand apart in the source and are kept apart here.

Columns and labels:
Assay type in all cases: cell-based
[1] = test system: Enterococcus faecalis ATCC 29212; test: Broth microdilution MIC, E. faecalis ATCC 29212; details: ATCC29212, broth microdilution, 37° C., 20 hours, read-out: MIC E. faecalis ATCC 29212
Procedure, shortened: (§1)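 Two-fold dilutions from 64 to 0.0625 μg/ml final, 1% DMSO, were inoculated at ~5.0×10^5 cfu/ml in the strain's test medium and kept 20 h at 37 °C in ambient atmosphere. Colonies were grown on MHA, with S. pneumoniae on blood agar under 5% CO2.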

[2] = test system: Enterococcus faecium ATCC 700221 (VRE); test: Broth microdilution MIC, E. faecium ATCC 700221 (VRE); details: Enterococcus faecium, broth microdilution, 37° C., 20 hours
Procedure, shortened: as §1

[3] = test system: Streptococcus pneumoniae ATCC 49619; test: Broth microdilution MIC, S. pneumoniae ATCC 49619; details: ATCC49619, broth microdilution, 37° C., 20 hours, read-out: MIC S. pneumoniae ATCC 49619
Procedure, shortened: as §1

[4] = test system: Bacillus subtilis ATCC 6633; test: Broth microdilution MIC, B. subtilis ATCC 6633; details: ATCC6633, broth microdilution, 37° C., 20 hours, read-out: MIC B. subtilis ATCC 6633
Procedure, shortened: as §1

[5] = test system: Escherichia coli ATCC 25922; test: Broth microdilution MIC, E. coli ATCC 25922 (MHIIB w & w/o 4 mM EDTA); details: broth microdilution, 37° C., 20 hours; for MIC: Escherichia coli, ATCC25922, without EDTA, read-out: MIC E. coli ATCC 25922; for MIC E. coli ATCC 25922 + 4 mM EDTA: with 4 mM EDTA
Procedure, shortened: as §1

[6] = test system: Staphylococcus aureus NRS384 (MRSA); test: Broth microdilution MIC, S. aureus NRS384 (MRSA); details: Staphylococcus aureus, broth microdilution, 37° C., 20 hours
Procedure, shortened: as §1

[7] = test system: Staphylococcus aureus ATCC 29213 (MSSA); test: Broth microdilution MIC, S. aureus ATCC 29213 (MSSA); details: broth microdilution, 37° C., 20 hours, read-out: MIC S. aureus ATCC 29213 (MSSA)
Procedure, shortened: as §1

[8] = read-out: MIC E. faecium ATCC 700221 (VRE)

SMILES | MIC [1] [µg/mL] | MIC [2, 8] [µg/mL] | MIC [3] [µg/mL] | MIC [4] [µg/mL] | MIC [5] [µg/mL] | MIC E. coli ATCC 25922 + 4 mM EDTA [5] [µg/mL] | MIC ([6]; read-out: MIC NRS 384 (MRSA)) [µg/mL] | MIC [7] [µg/mL] | MIC ([2]; MHIIB, read-out: MIC against E. faecium ATCC 700221 (VRE)) [µg/mL] | MIC ([6]; MHIIB, read-out: MIC against S. aureus NRS 384 (MRSA)) [µg/mL]
CNC(=O)C(C)(C)CCCn1ncc2nc(NCc3ccc(Cl)c(Cl)c3)[nH]c(=O)c21 [Compound 198, 5-(5-((3,4-dichlorobenzyl)amino)-7-oxo-6,7-dihydro-1H-pyrazolo[4,3-d]pyrimidin-1-yl)-N,2,2-trimethylpentanamide] | 16 (≈ 35.4 µM) | 16 (≈ 35.4 µM) | 16 (≈ 35.4 µM) | 4 (≈ 8.86 µM) | > 64 | >64 | 16 (≈ 35.4 µM) | 16 (≈ 35.4 µM) |  | 
CC(C)OC(=O)CCCCn1ncc2nc(NCc3ccc(Cl)c(Cl)c3)[nH]c(=O)c21 [Compound 204, isopropyl 5-(5-((3,4-dichlorobenzyl)amino)-7-oxo-6,7-dihydro-1H-pyrazolo[4,3-d]pyrimidin-1-yl)pentanoate] | > 64 | 2 (≈ 4.42 µM) | 16 (≈ 35.4 µM) | 1 (≈ 2.21 µM) | > 64 | >64 | 2 (≈ 4.42 µM) | 4 (≈ 8.84 µM) |  | 
Cl.O=C(c1cn[nH]n1)N1CCC(n2ncc3nc(NCc4ccc(Cl)c(Cl)c4)[nH]c(=O)c32)CC1 [Compound 272, 1-(1-(2H-1,2,3-triazole-4-carbonyl)piperidin-4-yl)-5-((3,4-dichlorobenzyl)amino)-1H-pyrazolo[4,3-d]pyrimidin-7(6H)-one hydrochloride] | 4 | 2 | 8 | 4 | > 64 | >64 | 8 | 16 |  | 
Cl.O=C(c1ccccn1)N1CCC(n2ncc3nc(NCc4ccc(Cl)c(Cl)c4)[nH]c(=O)c32)CC1 [Compound 255, 5-((3,4-Dichlorobenzyl)amino)-1-(1-picolinoylpiperidin-4-yl)-1H-pyrazolo[4,3-d]pyrimidin-7(6H)-one hydrochloride] | 4 | 2 | 2 | 2 | > 64 | >64 | 4 | 4 |  | 
O=c1[nH]c(NCc2ccc(Cl)c(Cl)c2)nc2c(Cl)n[nH]c12 [Compound 55, 3-Chloro-5-[(3,4-dichlorophenyl)methylamino]-1,6-dihydropyrazolo[4,3-d]pyrimidin-7-one] | 8 (≈ 23.2 µM) | 4 (≈ 11.6 µM) | 8 (≈ 23.2 µM) | 2 (≈ 5.8 µM) | > 64 | 64 | 4 (≈ 11.6 µM) | 4 (≈ 11.6 µM) |  | 
O=c1[nH]c(NCc2ccc(Cl)c(Cl)c2)nc2cnn(-c3ccncc3)c12 [Compound 222, 5-[(3,4-dichlorophenyl)methylamino]-1-(4-pyridyl)-6H-pyrazolo[4,3-d]pyrimidin-7-one] | 4 (≈ 10.3 µM) | 2 (≈ 5.16 µM) | 2 (≈ 5.16 µM) | 1 (≈ 2.58 µM) | > 64 | 64 | 1 (≈ 2.58 µM) | 2 (≈ 5.16 µM) | ≤ 1 | ≤ 1
Cn1ncc2nc(NCc3cccnn3)[nH]c(=O)c21 [Compound 23, 1-Methyl-5-((pyridazin-3-ylmethyl)amino)-1H-pyrazolo[4,3-d]pyrimidin-7(6H)-one] | > 64 | > 64 | > 64 | > 64 | > 64 | >64 | > 64 | > 64 |  | 
Cn1ncc2nc(NCc3ncccn3)[nH]c(=O)c21 [Compound 11, 1-Methyl-5-((pyrimidin-2-ylmethyl)amino)-1H-pyrazolo[4,3-d]pyrimidin-7(6H)-one] | > 64 | > 64 | > 64 | > 64 | > 64 | >64 | > 64 | > 64 |  | 
Cl.O=c1[nH]c(NCc2ccc(Cl)c(Cl)c2)nc2cnn(CC3C(O)C4CCN3CC4)c12 (centres unmarked) [Compound 236, 5-((3,4-Dichlorobenzyl)amino)-1-((3-hydroxyquinuclidin-2-yl)methyl)-1H-pyrazolo[4,3-d]pyrimidin-7(6H)-one] | 64 | 64 | 8 | 32 | > 64 | 64 | > 64 | > 64 |  | 

Next, values leading:

MIC [1] [µg/mL] | MIC [2, 8] [µg/mL] | MIC [3] [µg/mL] | MIC [4] [µg/mL] | MIC [5] [µg/mL] | MIC E. coli ATCC 25922 + 4 mM EDTA [5] [µg/mL] | MIC ([6]; read-out: MIC NRS 384 (MRSA)) [µg/mL] | MIC [7] [µg/mL] | MIC ([2]; MHIIB, read-out: MIC against E. faecium ATCC 700221 (VRE)) [µg/mL] | MIC ([6]; MHIIB, read-out: MIC against S. aureus NRS 384 (MRSA)) [µg/mL] | SMILES
16 (≈ 41.6 µM) | 8 (≈ 20.8 µM) | 4 (≈ 10.4 µM) | 8 (≈ 20.8 µM) | > 64 | >64 | 16 (≈ 41.6 µM) | 16 (≈ 41.6 µM) |  |  | O=c1[nH]c(NCc2ccc(Cl)c(Cl)c2)nc2cnn(CC(O)CO)c12 (centres unmarked) [Compound 75, 5-((3,4-dichlorobenzyl)amino)-1-(2,3-dihydroxypropyl)-1H-pyrazolo[4,3-d]pyrimidin-7(6H)-one]
64 | > 64 | 8 | 16 | > 64 | 64 | 64 | > 64 |  |  | Cl.O=c1[nH]c(NCc2ccc(Cl)c(Cl)c2)nc2cnn(CCN3CC(O)C3)c12 [Compound 70, 5-((3,4-Dichlorobenzyl)amino)-1-(2-(3-hydroxyazetidin-1-yl)ethyl)-1H-pyrazolo[4,3-d]pyrimidin-7(6H)-one hydrochloride]
4 (≈ 11.4 µM) | 2 (≈ 5.68 µM) | 4 (≈ 11.4 µM) | 1 (≈ 2.84 µM) | > 64 | 16 | 2 (≈ 5.68 µM) | 2 (≈ 5.68 µM) |  |  | CC(C)n1ncc2nc(NCc3ccc(Cl)c(Cl)c3)[nH]c(=O)c21 [Compound 130, 5-((3,4-Dichlorobenzyl)amino)-1-isopropyl-1H-pyrazolo[4,3-d]pyrimidin-7(6H)-one]
32 (≈ 90.6 µM) | 32 (≈ 90.6 µM) | 8 (≈ 22.6 µM) | 8 (≈ 22.6 µM) | > 64 | >64 | 64 (≈ 181 µM) | 64 (≈ 181 µM) |  |  | NCCn1ncc2nc(NCc3ccc(Cl)c(Cl)c3)[nH]c(=O)c21 [Compound 63, 1-(2-Aminoethyl)-5-[(3,4-dichlorophenyl)methylamino]-6H-pyrazolo[4,3-d]pyrimidin-7-one]
16 (≈ 38 µM) | 4 (≈ 9.49 µM) | 4 (≈ 9.49 µM) | 8 (≈ 19 µM) | > 64 | >64 | 16 (≈ 38 µM) | 16 (≈ 38 µM) |  |  | O=C1CCCN1CCn1ncc2nc(NCc3ccc(Cl)c(Cl)c3)[nH]c(=O)c21 [Compound 94, 5-((3,4-Dichlorobenzyl)amino)-1-(2-(2-oxopyrrolidin-1-yl)ethyl)-1H-pyrazolo[4,3-d]pyrimidin-7(6H)-one]
8 (≈ 19.4 µM) | 4 (≈ 9.7 µM) | 8 (≈ 19.4 µM) | 4 (≈ 9.7 µM) | > 64 | >64 | 8 (≈ 19.4 µM) | 8 (≈ 19.4 µM) |  |  | O=c1[nH]c(NCc2ccc(Cl)c(Cl)c2)nc2cnn(CCOCCCO)c12 [Compound 168, 5-[(3,4-dichlorophenyl)methylamino]-1-[2-(3-hydroxypropoxy)ethyl]-6H-pyrazolo[4,3-d]pyrimidin-7-one]
